What was measured:
PIK4CA transcript = assay: siRNA transfection of MP1 cells, real-time RT-PCR of PIK4CA transcript levels; type: cell-based, human
Source text: In order to confirm that knockdown of PI4K inhibits HCV RNA replication, an independent method of suppressing the host gene using siRNA synthetic oligonucleotides, is implemented. […] The effect is specific in that transfection of non-specific oligonucleotides elicits no effect on HCV RNA replication. For the siRNA oligo transfection experiments, the MP1 cells (human hepatoma Huh-7 cell line harboring HCV RNA replicon with a luciferase reporter gene, as described above) are also used. Cells are maintained in DMEM High glucose (Wisent Inc.) supplemented with 10% fetal bovine serum (FBS; HyClone) containing neomycin (250 μg/ml) (Geneticin; Invitrogen). The assay medium lacks the neomycin. […]
(§1) The negative control corresponds to a no match NS5B sequence (AAGAGAGUCAGUCAGCUAAUCAC) [SEQ ID NO. […] Moreover, RNA is also isolated (using the 96-well Qiagen extraction method as described in example 1) from a replicate plate of transfected cells such that real-time RT-PCR quantifying HCV replicon copy number (as described in example 1) and cellular transcript RNA levels are performed. The method of quantifying host transcript RNA levels is similar to HCV RNA quantification except that the primers and the TaqMan probe are specific for the PIK4CA gene. […]
A standard curve for a relative quantification of PIK4CA transcript expression per μg total RNA is established for each transcript. […]

hepatitis C virus = conditions: two day clinical trial; cited from earlier work
HCV RNA replicon = assay: siRNA transfection of MP1 cells, HCV replicon luciferase assay; type: cell-based, hepatitis C virus; conditions: luciferase reporter or HCV RNA
Procedure: The “Luciferase assay system” from Promega is used to measure firefly luciferase (reporter) expression in the MP1 cell line in a 96-well format with the following protocol: • Prepare the Luciferase assay reagent by adding Luciferase assay buffer to the vial containing the lyophilized Luciferase assay substrate • Prepare 1× Luciferase cell culture lysis reagent by adding 4 volumes of water to 1 volume of 5× lysis buffer • Carefully remove the assay medium from cells • Rinse cells with 100 μl PBS buffer being careful to not dislodge attached cells • A black backing tape (Packard) is applied on bottom side of the 96-well black clear bottom plate. • Aliquot 30 μl/well of 1× Luciferase cell culture lysis reagent • Incubate at room temperature 10 minutes minimum • Aliquot 150 μl/well of Luciferase assay reagent and immediately measure the light produced on a TopCount NXT Instrument (Packard) (count time=2 s/well) […]
as §1, with “performed.” for “performed. The method of quantifying host transcript RNA levels is similar to HCV RNA quantification except that the primers and the TaqMan probe are specific for the PIK4CA gene.”

Compound | effect on PIK4CA transcript levels (PIK4CA transcript; controls (siRNA 10 nM; BILN 2061 100 nM)) | viral loads in patients infected with the hepatitis C virus (hepatitis C virus) | inhibition of HCV replicon levels (HCV RNA replicon) | reduction of PIK4CA transcript levels (PIK4CA transcript; 10 nM siRNA, RT-PCR, relative to DharmaFECT only) [%]
COc1ccc2c(O[C@@H]3C[C@H]4C(=O)N[C@]5(C(=O)O)C[C@H]5/C=C\CCCCC[C@H](NC(=O)OC5CCCC5)C(=O)N4C3)cc(-c3csc(NC(C)C)n3)nc2c1 [BILN2061] | no effect | effective in rapidly reducing viral loads | – | –
PIK4CA siRNA #9: siRNA (si Genome duplex, Dharmacon) with defined sequence # 9 targeting a segment on the host transcript (GCAGAAATTTGGCCTGTTT; listed as DNA, further chemistry not given here) | – | – | proportionally lower inhibition | ~25

Reference: US20070212717A1, “Method for Inhibiting Hepatitis C Virus Replication” (priority 2006, published 2007)
